Values quoted from earlier work as cited in patent US20140100537A1 (MEDICURE INTERNATIONAL INC., priority 2009, published 2014).

System: platelet aggregation
Settings: typical dosage for tirofiban

CCCCS(=O)(=O)NC(Cc1ccc(OCCCCC2CCNCC2)cc1)C(=O)O.Cl (stereo not shown) [tirofiban]
platelet inhibition provided by typical dosage: > 90%
